Experimental findings from US20230348358A1, “Serotonin Receptor Modulators” (Northeastern University, priority 2020, published 2023) are described below.

“Also recorded” adds a separate entry of the source. Where two headings read alike, the source gives them in different places.

Data set [1] has as its target T1, 5HT2A receptors (Homo sapiens, UniProt P28223).
T1 construct: host or cells: HEK293, transient
Kind of data set: biochemical. The data set is classed as binding.

Data set [2] has as its target T2, 5HT2B receptors (Homo sapiens, UniProt P41595).
T2 construct: host or cells: HEK293, transient
Kind of data set: 5HT2B functional assays. In kind it is cell-based.

The subject of data set [3] is C58/J mice. Kind of data set: Idiopathic stereotypic jumping. In kind it is in vivo, mouse. Conditions: dose-dependent; listed as (2S)-5-FPT, HCl.
In data set [4] the test system is C57BI/6J mice. Kind of data set: MK-801 elicited stereotypic rotations and hyperlocomotion. In kind it is in vivo, mouse. From the text:
Regarding glutamate neurotransmission in stereotypy, the NMDA receptor antagonist, MK-801, characteristically elicits stereotypic rotations that appear to mimic monogenetic stereotypy observed in Fmr1 KO mice. Furthermore, mutations and autoantibodies of the NMDA glutamate receptor that decrease its function are causally linked to ASD, intellectual disabilities, and psychiatric symptoms in humans.

The subject of data set [5] is BL/6J mice. Description: Serotonin syndrome-like behavior observation. The data set is classed as in vivo, mouse.
Data set [6] deals with T3, 5HT7 (Homo sapiens, UniProt P34969). Kind of data set: 5HT7 function, Gs-cAMP signaling (HEK293 cells). In kind it is cell-based. Also noted: ATCC CRL-1573 (cells). Particulars: for Function at 5HT7: cAMP signaling, HCl. The source says:
It is certain that the C(5) substituent impacts function. […] In FIG. 3, results of measured (S)-5-PAT scaffold yields with various function as 5HT7 ligands are compared with AS-19 and clozapine.

Data set [7] deals with T3, 5HT7. Kind of data set: Affinity (Ki) at 5HT7, HEK293 cells stably expressing 5HT7.

T3 sequence (P34969 whole entry): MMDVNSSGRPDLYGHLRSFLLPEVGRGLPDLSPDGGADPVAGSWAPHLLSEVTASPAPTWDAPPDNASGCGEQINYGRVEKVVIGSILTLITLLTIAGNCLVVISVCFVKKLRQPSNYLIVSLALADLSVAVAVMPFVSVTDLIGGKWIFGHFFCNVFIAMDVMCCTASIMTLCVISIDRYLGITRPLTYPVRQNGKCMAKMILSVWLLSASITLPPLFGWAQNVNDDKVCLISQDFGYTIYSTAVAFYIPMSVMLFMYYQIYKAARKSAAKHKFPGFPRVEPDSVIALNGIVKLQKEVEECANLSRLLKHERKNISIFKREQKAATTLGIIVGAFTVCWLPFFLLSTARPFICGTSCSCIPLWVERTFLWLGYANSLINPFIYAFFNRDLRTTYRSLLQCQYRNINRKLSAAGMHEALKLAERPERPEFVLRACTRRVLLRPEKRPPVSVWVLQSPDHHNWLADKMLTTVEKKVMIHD
T1 sequence (P28223 whole entry): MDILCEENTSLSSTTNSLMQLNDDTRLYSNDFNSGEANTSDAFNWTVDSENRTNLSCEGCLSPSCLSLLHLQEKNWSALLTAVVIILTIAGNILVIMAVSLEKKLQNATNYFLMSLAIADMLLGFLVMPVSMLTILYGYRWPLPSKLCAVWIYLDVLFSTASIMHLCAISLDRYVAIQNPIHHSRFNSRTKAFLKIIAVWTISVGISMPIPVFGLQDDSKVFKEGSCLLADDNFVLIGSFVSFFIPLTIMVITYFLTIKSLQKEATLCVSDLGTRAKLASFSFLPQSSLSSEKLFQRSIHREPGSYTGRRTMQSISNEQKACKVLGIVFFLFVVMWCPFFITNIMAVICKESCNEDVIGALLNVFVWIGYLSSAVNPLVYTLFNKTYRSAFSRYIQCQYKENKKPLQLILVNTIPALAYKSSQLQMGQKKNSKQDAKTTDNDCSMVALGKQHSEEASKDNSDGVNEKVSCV
T2 sequence (P41595 whole entry): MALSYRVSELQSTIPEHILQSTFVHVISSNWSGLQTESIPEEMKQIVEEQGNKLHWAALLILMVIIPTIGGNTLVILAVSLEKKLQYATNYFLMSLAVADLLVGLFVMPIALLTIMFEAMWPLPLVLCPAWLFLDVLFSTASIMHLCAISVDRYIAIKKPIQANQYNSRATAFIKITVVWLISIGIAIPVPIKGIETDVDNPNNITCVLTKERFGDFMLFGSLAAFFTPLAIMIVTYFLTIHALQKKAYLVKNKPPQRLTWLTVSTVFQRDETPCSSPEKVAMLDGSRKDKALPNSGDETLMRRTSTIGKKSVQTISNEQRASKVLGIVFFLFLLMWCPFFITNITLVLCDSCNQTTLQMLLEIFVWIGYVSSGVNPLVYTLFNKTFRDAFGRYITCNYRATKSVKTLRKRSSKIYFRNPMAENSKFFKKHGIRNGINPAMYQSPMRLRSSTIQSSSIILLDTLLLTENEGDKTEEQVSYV

Usually Ki stands for a dissociation constant, usually derived from enzyme kinetics or from competition with a known ligand. In general, EC50 refers to the midpoint of the concentration-response curve. Higher therefore signals weaker potency. `CN(C)[C@H]1CCc2c(cccc2-c2ccccc2F)C1.Cl` [(S)-5-FPT, (2S)-5-(2-fluorophenyl)-N,N-dimethyl-1,2,3,4-tetrahydronaphthalen-2-amine HCl]: the Ki in data set [1] was roughly 900 nM. In addition, in data set [2], the 5HT2B functional activity entry was “devoid of 5HT2B activity up to 100 μM”. The Stereotypic jumping result in data set [3] is “potently eliminated stereotypic jumping; also recorded: greater efficacy in this model than the recently reported mGluR5 negative allosteric modulator, GRN-529”. In data set [4] (5.6 mg/kg), the “Hyperlocomotion caused by MK-801” value is “significantly decreased hyperlocomotion” and the “MK-801 elicited stereotypical rotations” value is on record as “significantly reduced stereotypical rotations”. The “Stereotypic rotational behavior, compound alone” value in data set [4] (without MK-801) is listed as “neither (2S)-5-FPT nor AMP caused stereotypic rotational behavior”. Besides, the “Flat Body” value in data set [5] (5.6 mg/kg, mean (SEM) number of six one-minute sessions with the behavior (score/6)) is 0(0). In addition, in data set [5] (5.6 mg/kg, mean (SEM) score/6), the “Forepaw Tread” value is 0(0), the “Head Weave” value was 0(0), the “Moon Walk” value was 0.3(0.2) and the Piloerection was 0(0). Besides, in data set [5] (5.6 mg/kg, mean (SEM) score/6), the “Straub Tail” value is listed as 0(0) and the Tremor is listed as 0(0). For the same molecule, in data set [5] (mouse, in vivo, listed as (2S)-5-FPT, HCl), the “Serotonin syndrome” value is given as “did not result in symptoms of serotonin syndrome; also recorded: does not produce serotonin syndrome-like symptoms”. Further, in data set [6], the EC50 was 34 nM; the “EMAX vs AS-19, 5-HT7 Gs-cAMP signaling” value was 33%; the “Function at 5HT7” value is listed as “Partial agonist”. Further, the “Function at 5HT7” value in data set [6] (listed as (2S)—S-FPT) is given as “partial agonist”. The “5-HT7 affinity of (S)-enantiomer over (R)-enantiomer” value in data set [7] is “about 80 times”. For the same molecule, in data set [7] (Affinity Ki ± SEM at 5HT7), the affinity, expressed as Ki, was 5 nM. In addition, in data set [7] (read-out: Affinity Ki ± SEM at 5HT7, HCl), the Ki was found to be 5.3 ± 2 nM.
